Values joined by “and” are separate entries in the source; they are usually repeats but may differ in a detail not shown here. Equal values may be shown once. Inconclusive results and toxic doses are left out. Rule for the calls: active = survival T/C of 150% or more; inactive = T/C below 125% in these data.
Test system: P388 leukemia ip, CD2F1 mice, survival T/C
Assay: NCI In Vivo Anticancer Drug Screen. Data for tumor model P388 Leukemia (intraperitoneal) in CD2F1 (CDF1) mice
Conditions: endpoint: median survival time, higher = longer survival
Procedure, shortened: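 Mice carrying the transplanted tumor received test compound or vehicle. Survival was recorded in each group, and the value is the treated-group measurement divided by that of the vehicle-treated control group.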

[1] = dose: 50.0 mg/kg/injection, schedule: Q01DX009 (ip), vehicle: Klucel (hydroxypropylcellulose) (HPC)
[2] = dose: 100.0 mg/kg/injection, schedule: Q01DX009 (ip), vehicle: Klucel (hydroxypropylcellulose) (HPC)
[3] = dose: 200.0 mg/kg/injection, schedule: Q01DX009 (ip), vehicle: Klucel (hydroxypropylcellulose) (HPC)
[4] = dose: 100.0 mg/kg/injection, schedule: Q01DX001 (ip), vehicle: saline with Tween-80
[5] = dose: 200.0 mg/kg/injection, schedule: Q01DX001 (ip), vehicle: saline with Tween-80
[6] = dose: 400.0 mg/kg/injection, schedule: Q01DX001 (ip), vehicle: saline with Tween-80
[7] = dose: 50.0 mg/kg/injection, schedule: Q01DX005 (ip), vehicle: Klucel (hydroxypropylcellulose) (HPC)
[8] = dose: 100.0 mg/kg/injection, schedule: Q01DX005 (ip), vehicle: Klucel (hydroxypropylcellulose) (HPC)
[9] = dose: 50.0 mg/kg/injection, schedule: Q01DX009 (ip), vehicle: saline
[10] = dose: 100.0 mg/kg/injection, schedule: Q01DX009 (ip), vehicle: saline
[11] = dose: 200.0 mg/kg/injection, schedule: Q01DX009 (ip), vehicle: saline
[12] = dose: 60.0 mg/kg/injection, schedule: Q01DX005 (ip), vehicle: saline with Tween-80
[13] = dose: 120.0 mg/kg/injection, schedule: Q01DX005 (ip), vehicle: saline with Tween-80
[14] = dose: 240.0 mg/kg/injection, schedule: Q01DX005 (ip), vehicle: saline with Tween-80

Measured: T/C

Cc1nnc2sc(-c3cccc(Cl)c3)nn2c1=O
inactive: dose: 50.0 mg/kg/injection, schedule: Q04DX002 (ip), vehicle: Klucel (hydroxypropylcellulose) (HPC) 102 % of control | dose: 100.0 mg/kg/injection, schedule: Q04DX002 (ip), vehicle: Klucel (hydroxypropylcellulose) (HPC) 100 % of control | dose: 200.0 mg/kg/injection, schedule: Q04DX002 (ip), vehicle: Klucel (hydroxypropylcellulose) (HPC) 100 % of control

CCCCCCCCCCCCCCCCCC(=O)[O][Sn]([CH2]CCC)([CH2]CCC)[O]C(=O)CCCCCCCCCCCCCCCCC
inactive: dose: 2.66 mg/kg/injection, schedule: Q04DX003 (ip), vehicle: other 109 % of control | dose: 4.0 mg/kg/injection, schedule: Q04DX003 (ip), vehicle: other 106 % of control | dose: 6.0 mg/kg/injection, schedule: Q04DX003 (ip), vehicle: other 109 % of control | dose: 9.0 mg/kg/injection, schedule: Q04DX003 (ip), vehicle: other 110 % of control

CCOC(=O)N1CCc2cc(OC)c(OC)cc2C1(O)Cc1cc(OC)c(OC)cc1Br (centres undefined)
inactive: dose: 25.0 mg/kg/injection, schedule: Q01DX009 (ip), vehicle: other 109 % of control | dose: 50.0 mg/kg/injection, schedule: Q01DX009 (ip), vehicle: other 106 % of control | dose: 100.0 mg/kg/injection, schedule: Q01DX009 (ip), vehicle: other 103 % of control | dose: 200.0 mg/kg/injection, schedule: Q01DX009 (ip), vehicle: other 113 % of control | dose: 400.0 mg/kg/injection, schedule: Q01DX009 (ip), vehicle: other 113 % of control

CCOC(=O)c1ccc(N=C=S)cc1
inactive: dose: 6.25 mg/kg/injection, schedule: Q01DX009 (ip), vehicle: distilled water + Tween-80 100 % of control | dose: 12.5 mg/kg/injection, schedule: Q01DX009 (ip), vehicle: distilled water + Tween-80 100 % of control | dose: 25.0 mg/kg/injection, schedule: Q01DX009 (ip), vehicle: distilled water + Tween-80 100 % of control and 111 % of control | dose: 50.0 mg/kg/injection, schedule: Q01DX009 (ip), vehicle: distilled water + Tween-80 117 % of control | dose: 100.0 mg/kg/injection, schedule: Q01DX009 (ip), vehicle: distilled water + Tween-80 109 % of control

O=[N+]([O-])c1ccc2nc(N/N=C/COC/C=N/Nc3nc4ccc([N+](=O)[O-])cc4s3)sc2c1
inactive: dose: 100.0 mg/kg/injection, schedule: Q01DX001 (ip), vehicle: saline 94 % of control | dose: 200.0 mg/kg/injection, schedule: Q01DX001 (ip), vehicle: saline 104 % of control | dose: 400.0 mg/kg/injection, schedule: Q01DX001 (ip), vehicle: saline 96 % of control

Nc1[nH]c(=O)ncc1CS(=O)(=O)O
inactive: dose: 50.0 mg/kg/injection, schedule: Q04DX002 (ip), vehicle: saline with Tween-80 97 % of control | dose: 100.0 mg/kg/injection, schedule: Q04DX002 (ip), vehicle: saline with Tween-80 108 % of control | dose: 200.0 mg/kg/injection, schedule: Q04DX002 (ip), vehicle: saline with Tween-80 107 % of control

CCCCCCCCCCN1CCS(=O)(=O)CC1
inactive: [1] 101 % of control | [2] 100 % of control | [3] 98 % of control

COc1c(C)cc(C)c(CCl)c1-c1c(CCl)c(C)cc(C)c1OC
inactive: dose: 100.0 mg/kg/injection, schedule: Q01DX001 (ip), vehicle: Klucel (hydroxypropylcellulose) (HPC) 90 % of control | dose: 200.0 mg/kg/injection, schedule: Q01DX001 (ip), vehicle: Klucel (hydroxypropylcellulose) (HPC) 93 % of control

COc1ccc2nc3cc(Cl)ccc3c(Nc3ccccc3NC(C)=O)c2n1
inactive: dose: 12.5 mg/kg/injection, schedule: Q01DX009 (ip), vehicle: water 116 % of control | dose: 25.0 mg/kg/injection, schedule: Q01DX009 (ip), vehicle: water 116 % of control | dose: 50.0 mg/kg/injection, schedule: Q01DX009 (ip), vehicle: water 119 % of control | dose: 100.0 mg/kg/injection, schedule: Q01DX009 (ip), vehicle: water 114 % of control | dose: 200.0 mg/kg/injection, schedule: Q01DX009 (ip), vehicle: water 115 % of control

CCSC(C(OC(C)=O)C(OC(C)=O)C(COC(C)=O)OC(C)=O)n1cnc2c(=S)nc[nH]c21 (centres undefined)
inactive: [4] 101 % of control | [5] 93 % of control | [6] 87 % of control

O=C(NC(Cc1ccccc1)C(=O)O)OCC1c2ccccc2-c2ccccc21 (centres undefined)
inactive: [7] 108 % of control | [8] 105 % of control

Cc1ncc([N+](=O)[O-])n1CCOC(N)=O
inactive: [1] 100 % of control | [2] 99 % of control | [3] 99 % of control

O=C1CCCCC1O (centres undefined)
inactive: [9] 104 % of control and 106 % of control | [10] 100 % of control and 103 % of control | [11] 110 % of control and 97 % of control | dose: 400.0 mg/kg/injection, schedule: Q01DX009 (ip), vehicle: saline 88 % of control and 95 % of control

COC(=O)c1nnn(-c2ccc(C)c(C)c2)c1N
inactive: [12] 90 % of control | [13] 93 % of control | [14] 94 % of control

CCc1cn[nH]c(=O)c1
inactive: [9] 110 % of control | [10] 96 % of control | [11] 104 % of control

CC(C)(C#N)Nc1ccccc1
inactive: dose: 3.13 mg/kg/injection, schedule: Q04DX003 (ip), vehicle: saline with Tween-80 87 % of control | dose: 6.25 mg/kg/injection, schedule: Q04DX003 (ip), vehicle: saline with Tween-80 100 % of control and 95 % of control | dose: 12.5 mg/kg/injection, schedule: Q04DX003 (ip), vehicle: saline with Tween-80 100 % of control | dose: 25.0 mg/kg/injection, schedule: Q04DX003 (ip), vehicle: saline with Tween-80 100 % of control

O=C1C(c2ccccc2)=S=C2C=Cc3ccccc3N12
inactive: [4] 109 % of control | [5] 111 % of control | [6] 116 % of control

CCC(C)C(N)C(=O)NC(CC(N)=O)C(=O)NC(CC(C)C)C(=O)NC(CCCCN)C(=O)NC(C)C(=O)NC(CC(C)C)C(=O)NC(C)C(=O)NC(C)C(=O)NC(CC(C)C)C(=O)NC(C)C(=O)NC(CCCCN)C(=O)NC(CCCCN)C(=O)NC(C(=O)NC(CC(C)C)C(N)=O)C(C)CC (centres undefined)
inactive: dose: 1.56 mg/kg/injection, schedule: Q01DX005 (ip), vehicle: Klucel (hydroxypropylcellulose) (HPC) 102 % of control | dose: 3.12 mg/kg/injection, schedule: Q01DX005 (ip), vehicle: Klucel (hydroxypropylcellulose) (HPC) 100 % of control | dose: 6.25 mg/kg/injection, schedule: Q01DX005 (ip), vehicle: Klucel (hydroxypropylcellulose) (HPC) 95 % of control | dose: 12.5 mg/kg/injection, schedule: Q01DX005 (ip), vehicle: Klucel (hydroxypropylcellulose) (HPC) 94 % of control and 96 % of control

Cc1ccc(NC(=O)N(C)C)cc1NC(=O)N(C)C
inactive: [12] 100 % of control | [13] 100 % of control | [14] 101 % of control

OC12CC3CC(CN1)CC(C3)C2
inactive: [7] 109 % of control | [8] 99 % of control | dose: 200.0 mg/kg/injection, schedule: Q01DX005 (ip), vehicle: Klucel (hydroxypropylcellulose) (HPC) 95 % of control

COC(=O)CC1C=CC(OC)[C@@]2(C)C(=O)C=C(C)C(=O)[C@@H]12 (some centres undefined)
inactive: [12] 110 % of control | [13] 106 % of control | [14] 106 % of control

CC1(C)CC(=O)C=C(NCCCCNC2=CC(=O)CC(C)(C)C2)C1
inactive: [1] 95 % of control | [2] 95 % of control | [3] 95 % of control
